Assay results reported in ChEMBL document CHEMBL1201862, “PubChem BioAssay data set” (2004).
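A five-concentration, 48-hour dose response in 96-well plates underlies each endpoint, interpolated linearly between surrounding concentrations. Here, GI50 denotes the concentration required for 50% inhibition of growth.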 The source made the active and inactive calls. No stated cut-off is given here; in the data, active = GI50 up to about 1.1 µM and inactive = higher.

Legend:
Assay in all cases: NCI anticancer screen, dose series, 48 h
[1] = test system: IGROV-1
[2] = test system: OVCAR-5
[3] = test system: SNB-19
[4] = test system: A549
[5] = test system: SK-MEL-28
[6] = test system: SNB-75
[7] = test system: SW-620
[8] = test system: T47D
[9] = test system: SF-539
[10] = test system: MCF7
[11] = test system: HL-60
[12] = test system: NCI-H522
[13] = test system: SN12C
[14] = test system: HCT-15
[15] = test system: HT-29
[16] = test system: MDA-MB-435
[17] = test system: SK-OV-3
[18] = test system: K562
[19] = test system: ACHN
[20] = test system: UO-31
[21] = test system: MOLT-4
[22] = test system: M14
[23] = test system: EKVX
[24] = test system: TK-10
[25] = test system: HCC 2998
[26] = test system: KM12
[27] = test system: SF-268
[28] = test system: Hs-578T
[29] = test system: SR
[30] = test system: SK-MEL-5
[31] = test system: NCI-H23
[32] = test system: NCI-H460
[33] = test system: UACC-62
[34] = test system: OVCAR-3
[35] = test system: HOP-92
[36] = test system: SK-MEL-2
[37] = test system: DU-145
[38] = test system: CCRF-CEM
[39] = test system: U-251
[40] = test system: SF-295
[41] = test system: MDA-MB-231
[42] = test system: CAKI-1
[43] = test system: UACC-257
[44] = test system: OVCAR-4
[45] = test system: RPMI-8226
[46] = test system: COLO 205
[47] = test system: RXF 393
[48] = test system: OVCAR-8
[49] = test system: HCT-116
[50] = test system: NCI/ADR-RES
[51] = test system: HOP-62
[52] = test system: NCI-H226
[53] = test system: PC-3
[54] = test system: 786-0
[55] = test system: A498
[56] = test system: MDA-N
[57] = test system: Malme-3M
[58] = test system: LOX IMVI

With `CCOC(=O)/C(=N/Nc1ccc(Cl)cc1)N1C(=S)N(C)N=C(C)C=C1S` the GI50 [1] was > 100 µM (inactive), the GI50 [2] was > 100 µM (inactive) and the GI50 [3] was 34.6 µM (inactive). The GI50 [4] was 61.8 µM (inactive), the GI50 [5] was > 100 µM (inactive) and the GI50 [6] was 24.2 µM (inactive). For the same compound, the GI50 [7] was > 100 µM (inactive), the GI50 [8] was 29.8 µM (inactive) and the GI50 [9] was 57.1 µM (inactive). The GI50 [10] was > 100 µM (inactive), the GI50 [11] was > 100 µM (inactive) and the GI50 [12] was 22.1 µM (inactive). The GI50 [13] was 29.6 µM (inactive), the GI50 [14] was > 100 µM and the GI50 [15] was > 100 µM (inactive). The GI50 [16] was > 100 µM (inactive), the GI50 [17] was 40.3 µM (inactive) and the GI50 [18] was > 100 µM (inactive). The GI50 [19] was > 100 µM (inactive), the GI50 [20] was > 100 µM (inactive) and the GI50 [21] was > 100 µM (inactive). The GI50 [22] was > 100 µM (inactive), the GI50 [23] was 24.3 µM (inactive) and the GI50 [24] was 30.5 µM (inactive). The GI50 [25] was > 100 µM (inactive), the GI50 [26] was > 100 µM (inactive) and the GI50 [27] was 29.9 µM (inactive). The GI50 [28] was 37.1 µM (inactive), the GI50 [29] was > 100 µM (inactive) and the GI50 [30] was > 100 µM (inactive). For the same compound, the GI50 [31] was 39 µM (inactive), the GI50 [32] was 26.7 µM (inactive) and the GI50 [33] was 34.6 µM (inactive). For the same compound, the GI50 [34] was 81.3 µM (inactive), the GI50 [35] was 50.7 µM (inactive) and the GI50 [36] was 57.7 µM (inactive). The GI50 [37] was > 100 µM (inactive), the GI50 [38] was > 100 µM (inactive) and the GI50 [39] was 15.9 µM (inactive). For the same compound, the GI50 [40] was 20.5 µM (inactive), the GI50 [41] was 29 µM (inactive) and the GI50 [42] was 54.5 µM (inactive). The GI50 [43] was > 100 µM (inactive), the GI50 [44] was > 100 µM (inactive) and the GI50 [45] was > 100 µM (inactive). For the same compound, the GI50 [46] was > 100 µM (inactive), the GI50 [47] was 11.7 µM (inactive) and the GI50 [48] was 23.7 µM (inactive). For the same compound, the GI50 [49] was > 100 µM (inactive) and the GI50 [50] was 42.9 µM (inactive).
In the case of `O=c1c2ccccc2n2c(-c3ccc(O)cc3)nnc2n1-c1ccccc1`, the GI50 [1] is reported as 18.1 µM (inactive), the GI50 [2] is reported as 96.6 µM (inactive) and the GI50 [51] is reported as 20.4 µM (inactive). For the same compound, the GI50 [3] was 20.4 µM (inactive), the GI50 [4] was 20.5 µM (inactive) and the GI50 [5] was 24.3 µM (inactive). The GI50 [6] was 18.7 µM (inactive), the GI50 [7] was 13.5 µM (inactive) and the GI50 [8] was 13.4 µM (inactive). For the same compound, the GI50 [9] was 18 µM (inactive), the GI50 [11] was 62.8 µM (inactive) and the GI50 [12] was 18.2 µM (inactive). For the same compound, the GI50 [13] was 17.1 µM (inactive), the GI50 [52] was 27 µM (inactive) and the GI50 [14] was 23.1 µM. The GI50 [15] was 22.1 µM (inactive), the GI50 [16] was 18.5 µM (inactive) and the GI50 [53] was 17.9 µM (inactive). For the same compound, the GI50 [17] was 20.6 µM (inactive), the GI50 [18] was 13.4 µM (inactive) and the GI50 [19] was 16.1 µM (inactive). For the same compound, the GI50 [20] was 3.72 µM (inactive), the GI50 [21] was 36.1 µM (inactive) and the GI50 [22] was 18.2 µM (inactive). The GI50 [23] was 17 µM (inactive), the GI50 [24] was 26.5 µM (inactive) and the GI50 [25] was 49.1 µM (inactive). For the same compound, the GI50 [26] was 49.2 µM (inactive), the GI50 [27] was 21.8 µM (inactive) and the GI50 [29] was 21.3 µM (inactive). The GI50 [30] was 18.5 µM (inactive), the GI50 [54] was 17.9 µM (inactive) and the GI50 [31] was 20.3 µM (inactive). For the same compound, the GI50 [32] was 17.8 µM (inactive), the GI50 [55] was 13 µM (inactive) and the GI50 [33] was 19.6 µM (inactive). For the same compound, the GI50 [34] was 18.2 µM (inactive), the GI50 [35] was 23.3 µM (inactive) and the GI50 [36] was 20.7 µM (inactive). For the same compound, the GI50 [37] was 21.9 µM (inactive), the GI50 [38] was 14.8 µM (inactive) and the GI50 [56] was 15.7 µM (inactive). The GI50 [39] was 17.2 µM (inactive), the GI50 [40] was 15.6 µM (inactive) and the GI50 [41] was 17.1 µM (inactive). For the same compound, the GI50 [42] was 29.6 µM (inactive), the GI50 [43] was 21.5 µM (inactive) and the GI50 [44] was 20 µM (inactive). The GI50 [46] was 77.6 µM (inactive), the GI50 [47] was 20.5 µM (inactive) and the GI50 [48] was 30.8 µM (inactive). For the same compound, the GI50 [49] was 20.9 µM (inactive), the GI50 [57] was 21.5 µM (inactive) and the GI50 [50] was 21.5 µM (inactive). For the same compound, the GI50 [58] was 29.4 µM (inactive).
`COC(C)(C)[C@@H](O)[C@H](O)C[C@H](C)C1=C2CC[C@@H]3[C@@]4(C)CC[C@@H](OC(C)=O)C(C)(C)[C@@H]4C[C@@H](OC4OC(COC(C)=O)C(O)C(O)C4O)[C@@]3(C)[C@]2(C)CC1` (stereo partly specified) was tested, and the GI50 [6] was 8.79 µM (inactive), the GI50 [17] was 15.3 µM (inactive) and the GI50 [39] was 10.7 µM (inactive).
`CCCCN1/C(=N/Nc2n[nH]c(=O)c3ccccc23)SCC1c1ccc(Cl)cc1` (stereo unspecified) was tested, and the GI50 [1] was 6.43 µM (inactive), the GI50 [2] was 29.1 µM (inactive) and the GI50 [51] was 6.24 µM (inactive). The GI50 [3] was 10.6 µM (inactive), the GI50 [4] was 5.26 µM (inactive) and the GI50 [5] was 19.1 µM (inactive). The GI50 [6] was 18.6 µM (inactive), the GI50 [7] was 19.8 µM (inactive) and the GI50 [8] was 4.29 µM (inactive). For the same compound, the GI50 [9] was 12.7 µM (inactive), the GI50 [10] was 10.6 µM (inactive) and the GI50 [11] was 14.9 µM (inactive). The GI50 [12] was 11.8 µM (inactive), the GI50 [13] was 24.6 µM (inactive) and the GI50 [52] was 10.4 µM (inactive). The GI50 [14] was 6.52 µM, the GI50 [15] was 24.2 µM (inactive) and the GI50 [16] was 11 µM (inactive). For the same compound, the GI50 [53] was 14 µM (inactive), the GI50 [17] was 21.8 µM (inactive) and the GI50 [18] was 8.17 µM (inactive). The GI50 [19] was 25.3 µM (inactive), the GI50 [20] was 18.7 µM (inactive) and the GI50 [22] was 5.55 µM (inactive). For the same compound, the GI50 [23] was 4.27 µM (inactive), the GI50 [24] was 33.9 µM (inactive) and the GI50 [26] was 5.01 µM (inactive). For the same compound, the GI50 [27] was 6.64 µM (inactive), the GI50 [28] was 15.1 µM (inactive) and the GI50 [29] was 4.73 µM (inactive). For the same compound, the GI50 [30] was 3.55 µM (inactive), the GI50 [54] was 20 µM (inactive) and the GI50 [31] was 1.64 µM (inactive). The GI50 [32] was 3.59 µM (inactive), the GI50 [55] was 3.47 µM (inactive) and the GI50 [33] was 7.31 µM (inactive). For the same compound, the GI50 [34] was 15 µM (inactive), the GI50 [35] was 57.9 µM (inactive) and the GI50 [36] was 20.9 µM (inactive). For the same compound, the GI50 [37] was 22.2 µM (inactive), the GI50 [39] was 4.92 µM (inactive) and the GI50 [40] was 6.53 µM (inactive). For the same compound, the GI50 [41] was 20.6 µM (inactive), the GI50 [42] was 20.3 µM (inactive) and the GI50 [43] was 12.2 µM (inactive). For the same compound, the GI50 [44] was 53.3 µM (inactive), the GI50 [45] was 4.72 µM (inactive) and the GI50 [46] was 11.8 µM (inactive). The GI50 [47] was 20.1 µM (inactive), the GI50 [48] was 15.4 µM (inactive) and the GI50 [49] was 13.9 µM (inactive). For the same compound, the GI50 [57] was 22 µM (inactive) and the GI50 [50] was 8.79 µM (inactive).
